# Assay results reported in patent US4740499A, “Method of enhancing the bioactivity of atrial peptides” (Monsanto Company, priority 1986, dated 1988).
# How the values were obtained:
# [1] = Plasma AP-III levels (radioimmunoassay) in rats, second test: varied AP-III infusion rate, constant thiorphan dose; format: in vivo, rat; details: for Plasma AP-III concn.: thiorphan 3 mg/kg arterial after 30 min sample
# Protocol: Plasma levels of atriopeptin III (AP-III) were tested in rats in which the AP-III was infused intravenously both with and without contemporaneous administration of thiorphan.
# Male Sprague-Dawley rats, 240-310 g, were used for all tests. The rats were housed in the test facilities for at least 6 days before they were used.
# Cannulas were made of PE-10 (polyethylene) tubing inserted and glued into a piece of PE-50 tubing. Rats were anesthetized with pentobarbital (50 mg/kg i.p.) and had cannulas inserted into the left femoral vein and artery. Both were inserted four cm into the vessels and tied securely. They were then tunnelled under the skin and brought out between the rat's shoulder blades and then cut so that only 1-2 cm was externalized. Cannulas were glued in place using Superglue and filled with saline containing 100 units heparin/ml. Rats were allowed to wake up and then housed individually with food and water ad libitum.
# Two days after surgery, the rats were weighed and put into restraining cages that allowed limited movement. […] Blood was collected from the femoral artery and replaced with saline containing 10 units heparin/ml. In most tests, 0.3 ml blood was taken, except that when basal AP-III levels were measured 0.4 ml blood was withdrawn. Blood was immediately centrifuged in a microcentrifuge for one minute and plasma was frozen in plastic tubes placed on dry ice. Samples were kept in a -80° C. freezer until they were analyzed.
# (§1) Thiorphan was dissolved in a minimal amount of 0.1 N NaOH to produce the sodium salt. The solution was immediately neutralized using 0.5 N HCl and diluted to a final concentration with 0.9% saline.
# In the second test, the level of thiorphan was kept constant at 3 mg/kg and the rate of AP-III infusion was varied. AP-III was infused into the femoral vein for a total of 60 minutes at a rate of 150,450 and 900 ng/kg/min; another group of rats received only an infusion of dextrose/saline to determine if thiorphan affected the basal levels of AP-III. Blood was taken at 15 and 30 minutes after the start of the AP-III infusion to check for a steady state AP-III plasma concentration. After the 30 min sample, thiorphan (3 mg/kg) was injected arterially and additional blood samples were taken 15 and 30 min later (45 and 60 minutes after the start of the AP-III infusion).
# Plasma AP-III levels were analyzed by radioimmunoassay using a second antibody to separate free and bound AP-III. The label was ^125 I-AP-III that was purified by HPLC after iodination. Conditions were set so that 35-40% of the total counts were precipitated. The incubation medium contained sodium phosphate, pH 7.4, 0.25% bovine serum albumin (BSA), 0.5% sodium azide and 3% PEG-8000 (polyethylene glycol). The primary antibody was from a guinea pig immunized against AP-III. The incubations were done overnight at 6° C. The next day, 2 ml of 0.125% BSA was added to each tube and then they were centrifuged for 45 min at 3000 rpm. They were decanted and the radioactivity was counted in a Micromedic gamma counter. The standard curve contained 10 to 600 pg AP-III/tube. Only the linear portion of the curve was used for quantification. Plasma samples were diluted so that the AP-III concentrations were in the range of the standard curve.
# [2] = HPLC analysis of thiorphan after dissolution in NaOH and neutralisation; format: physicochemical; details: dissolved in 0.1 N NaOH, neutralized with 0.5 N HCl, diluted with 0.9% saline
# Protocol: as §1
smiles,measurement,setting,value
"O=C(O)CNC(=O)C(CS)Cc1ccccc1 (racemic) [thiorphan, N-(DL-2-benzyl-3-mercapto-propionyl)glycine]",Plasma AP-III concn.,"[1]; rat, AP-III 150 ng/kg/min i.v. infusion, 45 min",2.6 ± 0.8 ng/mL
same,Plasma AP-III concn.,"[1]; rat, AP-III 150 ng/kg/min i.v. infusion, 60 min",3.3 ± 1.7 ng/mL
same,Plasma AP-III concn.,"[1]; rat, AP-III 450 ng/kg/min i.v. infusion, 45 min",11.2 ± 3.6 ng/mL
same,Plasma AP-III concn.,"[1]; rat, AP-III 450 ng/kg/min i.v. infusion, 60 min",12.8 ± 5.8 ng/mL
same,Plasma AP-III concn.,"[1]; rat, AP-III 900 ng/kg/min i.v. infusion, 45 min",29.8 ± 7.6 ng/mL
same,Plasma AP-III concn.,"[1]; rat, AP-III 900 ng/kg/min i.v. infusion, 60 min",23.0 ± 6.0 ng/mL
same,Plasma AP-III concn.,"[1]; rat, no AP-III infusion (dextrose/saline only, basal AP-III), 45 min",0.6 ± 0.3 ng/mL
same,Plasma AP-III concn.,"[1]; rat, no AP-III infusion (dextrose/saline only, basal AP-III), 60 min",0.5 ± 0.2 ng/mL
same,Increase of plasma AP-III levels after thiorphan administration,"[1]; rat, thiorphan 3 mg/kg given 30 min after start of various AP-III infusion rates",2-3 fold
same,Basal levels of AP-III after inhibitor,"[1]; rats receiving no exogenous peptide, thiorphan 3 mg/kg",did not increase
same,Degradation due to method of dissolution (HPLC analysis),[2],no apparent degradation
